Assay [1] can be described thus: Inhibition of Vps34 in human MCF7-LC3 cells assessed as starvation-induced autophagy.
The nature of assay [2]: Inhibition of Vps34 in human MCF7-LC3 cells assessed as rapamycin-induced autophagy.

pIC50: −log10 of the molar value.

We go through one compound from BindingDB's records for doi:10.1021/acs.jmedchem.9b02038 (China Pharmaceutical University, 2020).

A word on the pIC50: it is the IC50 on a negative log10 scale, so that one unit is a factor of ten. For `Cc1cc(Nc2cc(Cl)nc(Oc3ccc([N+](=O)[O-])cc3)n2)n[nH]1`, the pIC50 is 7.05 in assay [1] and 7.40 in assay [2].
